Laboratory results reported in patent publication US20040248887A1, “Inhibitors of cathepsin S” (IRM LLC, priority 2003, published 2004).

Target: Cathepsin S (Homo sapiens, UniProt P25774)
Test: Cathepsin S inhibition, fluorogenic peptide substrate kinetic assay
Assay type: biochemical
Conditions: Table II; Cathepsin S inhibition constant, pH5.5; read-out: Ki Cat. S
Text: “Inhibition constant”, Ki, is the dissociation constant of the enzyme-inhibitor complex, or the reciprocal of the binding affinity of the inhibitor to the enzyme. […] The inhibited rates are then fit by nonlinear regression to the following equation: [formula]
where vo is the initial rate of substrate processing in the absence of inhibitor, v; is the initial rate of substrate processing at a concentration [I] of inhibitor, Km is the steady state Michaelis constant (Fersht, A. Structure and Mechanism in Protein Science. New York, W.H. Freeman and Company, 1999), and [S] is the concentration of competitive substrate.
The assumption being made for the classical inhibition described above is that the free inhibitor concentration is equal to the total inhibitor concentration.
The inhibition constant, Ki, can be determined from the apparent inhibition constant, Ki^app, for competitive inhibitors by using the following relationship: [formula]
The optimal substrate for cathepsin S, acetyl-histidine-proline-valine-lysine-amino carbamoyl coumarin, was identified from screening a combinatorial library of fluorogenic peptide substrates (Harris, J. L., B. J. Backes, et al., Proc Natl Acad Sci USA 2000, 97(14), 7754-9). Kinetic measurements are performed in a total reaction volume of 30 μl in 384-well microtiter plates. […] The reactions are initiated by adding the substrate, acetyl-histidine-proline-valine-lysine-amino carbamoyl coumarin, to a final concentration of 50 μM. The rate of substrate hydrolysis is measured by monitoring the increase in fluorescence at an excitation wavelength of 380 nm and an emission wavelength of 450 nm that results from cleavage of the aniline bond in the substrate by the enzyme. The apparent inhibition constants for the compounds are determined from the enzyme progress curves (Kuzmic, P., K. C. Elrod, et al., Anal Biochem 2000, 286(1), 45-50) and are then used to calculate the inhibition constants for competitive inhibitors.

Sequence of Cathepsin S (P25774 115-331, species assumed): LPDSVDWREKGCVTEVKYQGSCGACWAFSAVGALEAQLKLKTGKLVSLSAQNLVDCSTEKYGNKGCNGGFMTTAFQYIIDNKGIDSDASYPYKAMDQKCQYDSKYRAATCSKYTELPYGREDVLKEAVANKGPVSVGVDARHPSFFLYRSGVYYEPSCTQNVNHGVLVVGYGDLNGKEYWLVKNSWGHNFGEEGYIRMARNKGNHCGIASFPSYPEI

| Compound | Ki |
| --- | --- |
| COc1ccc(NCCNC(=O)[C@H]2CCCC[C@H]2NC(=O)c2cccc(C)c2)cc1 (relative stereo) [Compound 1, N-{cis-2-[2-(4-Methoxy-phenylamino)-ethylcarbamoyl]-cyclohexyl}-3-methyl-benzamide] | < 10000 nM |
| O=C(N[C@@H](CC1CCCCC1)C(=O)NCCN1CCc2cc(F)ccc21)c1ccc(-c2cccc(C(F)(F)F)c2)o1 [Compound 2, 5-(3-Trifluoromethyl-phenyl)-furan-2-carboxylic acid (S)-{2-cyclohexyl-1-[2-(5-fluoro-2,3-dihydro-indol-1-yl)-ethylcarbamoyl]-ethyl}-amide] | < 100 nM |
| C[C@@H](CNc1ccc(C(=O)N(C)C)cc1)NC(=O)[C@H](CC1CCCCC1)NC(=O)c1ccc(-c2cccc(F)c2)o1 [Compound 122, 5-(3-Fluoro-phenyl)-furan-2-carboxylic acid {2-cyclohexyl-1-(S)-[2-(4-dimethylcarbamoyl-phenylamino)-1-(S)-methyl-ethylcarbamoyl]-ethyl}-amide] | < 100 nM |
| Cc1cccc(C(=O)N[C@@H](CC(C)C)C(=O)N[C@@H](CCC(=O)O)CN2CCc3cc(F)ccc32)c1 [Compound 43, (S,S)-5-(5-Fluoro-2,3-dihydro-indol-1-yl)-4-[4-methyl-2-(3-methyl-benzoylamino)-pentanoylamino]-pentanoic acid] | < 100 nM |
| C[C@@H](CNc1ccc2c(c1)C(=O)OC2)NC(=O)[C@H](CC1CCCCC1)NC(=O)c1ccc(-c2cccc(F)c2)o1 [Compound 137, 5-(3-Fluoro-phenyl)-furan-2-carboxylic acid {2-cyclohexyl-1-(S)-[1-(S)-methyl-2-(3-oxo-1,3-dihydro-isobenzofuran-5-ylamino)-ethylcarbamoyl]-ethyl}-amide] | < 100 nM |
| COc1ccc(N[C@@H]2CCCC[C@H]2NC(=O)[C@H](CC(C)C)NC(=O)c2cccc(C)c2)cc1 (mixture of isomers) [Compound 34, N-{1-(S)-[trans-2-(4-Methoxy-phenylamino)-cyclohexylcarbamoyl]-3-methyl-butyl}-3-methyl-benzamide] | < 1000 nM |
| C[C@@H](CNc1cccc(F)c1)NC(=O)[C@H](CC1CCCCC1)NC(=O)c1ccc(-c2cccc(F)c2)o1 [Compound 99, 5-(3-Fluoro-phenyl)-furan-2-carboxylic acid {2-cyclohexyl-1-(S)-[2-(3-fluoro-phenylamino)-1-(S)-methyl-ethylcarbamoyl]-ethyl}-amide] | < 100 nM |
| COc1ccc(N2CCC[C@@H](NC(=O)[C@H](CC(C)C)NC(=O)c3cccc(C)c3)C2)cc1 (single isomer, unassigned) [Compound 32] | < 10000 nM |
| C[C@@H](CNc1ccc(OC(F)F)cc1)NC(=O)[C@H](CC1CCCCC1)NC(=O)c1ccc(-c2cccc(F)c2)o1 [Compound 84, 5-(3-Fluoro-phenyl)-furan-2-carboxylic acid {2-cyclohexyl-1-(S)-[2-(4-difluoromethoxy-phenylamino)-1-(S)-methyl-ethylcarbamoyl]-ethyl}-amide] | < 100 nM |
| COc1cccc(C(=O)N[C@@H](Cc2ccc(F)cc2)C(=O)N[C@@H](COCc2ccccc2)CN2CCc3cc(F)ccc32)c1 [Compound 37, N-[1-(S)-[1-(R)-Benzyloxymethyl-2-(5-fluoro-2,3-dihydro-indol-1-yl)-ethylcarbamoyl]-2-(4-fluoro-phenyl)-ethyl]-3-methoxy-benzamide] | < 100 nM |
| CC(C(=O)N[C@@H](CC1CCCCC1)C(=O)NCCN1CCc2cc(F)ccc21)c1ccc(Cl)cc1 (stereo partly drawn) [Compound 64, 2-(4-Chloro-phenyl)-N-{2-cyclohexyl-1-(S)-[2-(5-fluoro-2,3-dihydro-indol-1-yl)-ethylcarbamoyl]-ethyl}-propionamide] | < 100 nM |
| COc1cccc(C(=O)N[C@@H](CCC2CCCCC2)C(=O)N[C@@H](CCCCN)CN2CCc3cc(F)ccc32)c1 [Compound 167, N-{1-(S)-[5-Amino-1-(S)-(5-fluoro-2,3-dihydro-indol-1-ylmethyl)-pentylcarbamoyl]-3-cyclohexyl-propyl}-3-methoxy-benzamide] | < 100 nM |
| C[C@@H](CNc1ccc(OC(F)(F)F)cc1)NC(=O)[C@H](CC1CCCCC1)NC(=O)c1ccc(-c2ccc[n+]([O-])c2)o1 [Compound 144, 5-(1-Oxy-pyridin-3-yl)-furan-2-carboxylic acid {2-cyclohexyl-1-(S)-[1-(S)-methyl-2-(4-trifluoromethoxy-phenylamino)-ethylcarbamoyl]-ethyl}-amide] | < 100 nM |
| COc1ccc(NCC(C)NC(=O)C(CC2CCCCC2)NC(=O)c2cccc(OC)c2)cc1 [Compound 26, N-{2-Cyclohexyl-(1S)-[2-(4-methoxy-phenylamino)-(1R)-methyl-ethylcarbamoyl]-ethyl}-3-methoxy-benzamide] | < 100 nM |
| COc1c(C)cc(NC[C@H](C)NC(=O)[C@H](CC2CCCCC2)NC(=O)c2ccc(-c3cccc(F)c3)o2)cc1C [Compound 115, 5-(3-Fluoro-phenyl)-furan-2-carboxylic acid {2-cyclohexyl-1-(S)-[2-(4-methoxy-3,5-dimethyl-phenylamino)-1-(S)-methyl-ethylcarbamoyl]-ethyl}-amide] | < 100 nM |
| (S)-3-Cyclohexyl-N-[2-(5-fluoro-2,3-dihydro-indol-1-yl)-ethyl]-2-(5-isoxazol-3-yl-thiophene-2-sulfonylamino)-propionamide [Compound 223] | < 1000 nM |
| CC(=O)Nc1cccc(NC[C@H](C)NC(=O)[C@H](CC2CCCCC2)NC(=O)c2ccc(-c3cccc(F)c3)o2)c1 [Compound 134, 5-(3-Fluoro-phenyl)-furan-2-carboxylic acid {1-(S)-[2-(3-acetylamino-phenylamino)-1-(S)-methyl-ethylcarbamoyl]-2-cyclohexyl-ethyl}-amide] | < 100 nM |

Now from value to compound:

| Ki | Compound |
| --- | --- |
| < 100 nM | C[C@@H](CN1CC(C)(C)c2cc(F)ccc21)NC(=O)[C@H](CC1CCCCC1)NC(=O)OC1CCOCC1 [Compound 215, (S,S)-{2-Cyclohexyl-1-[2-(5-fluoro-3,3-dimethyl-2,3-dihydro-indol-1-yl)-1-methyl-ethylcarbamoyl]-ethyl}-carbamic acid tetrahydro-pyran-4-yl ester] |
| < 10000 nM | CS(=O)(=O)N[C@@H](CC1CCCCC1)C(=O)NCCN1CCc2cc(F)ccc21 [Compound 249, (S)-3-Cyclohexyl-N-[2-(5-fluoro-2,3-dihydro-indol-1-yl)-ethyl]-2-methanesulfonylamino-propionamide] |
| < 100 nM | COc1ccc(-c2ccc(S(=O)(=O)N[C@@H](CC3CCCCC3)C(=O)NCCN3CCc4cc(F)ccc43)cc2)cc1 [Compound 238, (S)-3-Cyclohexyl-N-[2-(5-fluoro-2,3-dihydro-indol-1-yl)-ethyl]-2-(4′-methoxy-biphenyl-4-sulfonylamino)-propionamide] |
| < 100 nM | C[C@@H](CN1CCc2cc(F)ccc21)NC(=O)[C@H](CC(C)(C)C)NC(=O)c1ccnnc1 [Compound 178, Pyridazine-4-carboxylic acid {1-(S)-[2-(5-fluoro-2,3-dihydro-indol-1-yl)-1-(S)-methyl-ethylcarbamoyl]-3,3-dimethyl-butyl}-amide] |
| < 100 nM | O=C(NCCN1CCc2cc(F)ccc21)[C@H](CC1CCCCC1)NS(=O)(=O)c1ccc(Cl)s1 [Compound 227, (S)-2-(5-Chloro-thiophene-2-sulfonylamino)-3-cyclohexyl-N-[2-(5-fluoro-2,3-dihydro-indol-1-yl)-ethyl]-propionamide] |
| < 100 nM | Cc1noc(C)c1S(=O)(=O)N[C@@H](CC1CCCCC1)C(=O)N[C@@H](C)CN1CCc2cc(F)ccc21 [Compound 263, (S,S)-3-Cyclohexyl-2-(3,5-dimethyl-isoxazole-4-sulfonylamino)-N-[2-(5-fluoro-2,3-dihydro-indol-1-yl)-1-methyl-ethyl]-propionamide] |
| < 1000 nM | Cc1cccc(C(=O)N[C@@H](Cc2cccc(Cl)c2)C(=O)NCCN2CCc3cc(F)ccc32)c1 [Compound 197, N-((S)-1-(2-(5-fluoroindolin-1-yl)ethylcarbamoyl)-2-(3-chlorophenyl)ethyl)-3-methylbenzamide] |
| < 1000 nM | Cc1cc(NC[C@H](C)NC(=O)[C@H](CC2CCCCC2)NC(=O)c2ccc(-c3cccc(F)c3)o2)on1 [Compound 247, 5-(3-Fluoro-phenyl)-furan-2-carboxylic acid {2-cyclohexyl-1-(S)-[1-(S)-methyl-2-(3-methyl-isoxazol-5-ylamino)-ethylcarbamoyl]-ethyl}-amide] |
| < 100 nM | CC(=O)Nc1nc(C)c(S(=O)(=O)N[C@@H](CC2CCCCC2)C(=O)NCCN2CCc3cc(F)ccc32)s1 [Compound 257, (S)-2-(2-Acetylamino-4-methyl-thiazole-5-sulfonylamino)-3-cyclohexyl-N-[2-(5-fluoro-2,3-dihydro-indol-1-yl)-ethyl]-propionamide] |
| < 100 nM | C[C@@H](CN1CCc2cc(F)ccc21)NC(=O)[C@H](CC1CCCCC1)NS(=O)(=O)c1ccccc1 [Compound 264, (S,S)-2-Benzenesulfonylamino-3-cyclohexyl-N-[2-(5-fluoro-2,3-dihydro-indol-1-yl)-1-methyl-ethyl]-propionamide] |
